Series [1] is described as follows: Solubility testing in toluene at −30° C. The text has this: Solubility testing was undertaken using the estimate of Fe content from C/H/N analysis. […] This procedure assumes the products below to contain substantially only C, H and Fe. Masses of product(s) sufficient to provide the required concentration of iron as condensation products were weighed into screw-cap vials and made up to 10.00 g with toluene. The samples were capped, shaken or swirled until homogenous then sealed using Parafilm™. The vials were then kept in an ethylene glycol/water filled bath held at −30° C. and periodically inspected for the appearance of solids or separation of liquid phases. After at least one week solids were separated by rapid filtration and soluble products isolated by removal of solvent under vacuum. Following analysis of the solids, maximum and minimum solubilities were estimated from the mass balance.

A short description of series [2]: Fuel stability, in-house Test Method 1. Particulars: additive 20 ppm iron.
The nature of series [3]: Viscosity of 2.5 wt % iron solutions in toluene (Bohlin CVO rheometer). It counts as physicochemical. Particulars: toluene solution at 2.5 wt % Fe. The method, then:
Viscosities of 2.5 wt % iron solutions were determined using a Bohlin Instruments CVO rheometer using a 4° 40 mm cone and plate at shear rates of either 2 Pa or 0.5 Pa.

The mark [4] stands for this setting: toluene, −30° C., at least one week.

Like-named read-outs stand apart in the source and are kept apart here.

Regarding `CC(C)C([c-]1cccc1)[c-]1cccc1.[Fe+2].[Fe+2].c1cc[cH-]c1.c1cc[cH-]c1` [Compound 5, 1,1-diferrocenyl-2-methyl propane], in series [1] (setting [4]), the “Solubility at −30° C., 2.5 wt % Fe (appearance)” value was “Clear”.

On to Iron tris(2-ethylhexanoate) [Octanoate], for which, in series [2], the “fuel stability (conclusion)” value was “markedly lower stability”.

Regarding `O=C1CCCC(=O)C1` [Compound 12, 1,3-Cyclohexanedione], in series [1], the “Solubility at −30° C., 2.5 wt % Fe (appearance)” value is “Clear”; the “Solubility at −30° C., 5.0 wt % Fe (appearance)” value is “Crystals”; the “Solubility of Fe as product” value lay in the range of 3.6 to 4.1 wt % by mass balance.

Consider `[Fe+2].[Fe+2].c1cc[cH-]c1.c1cc[cH-]c1.c1ccc(CC([c-]2cccc2)[c-]2cccc2)cc1` [Compound 9, 1,1-diferrocenyl phenyl methane], for which, in series [3], the “Viscosity at −30° C. (mPas)” value came out at 4.3 mPas. Besides, in series [1] (setting [4]), the “Solubility at −30° C., 2.5 wt % Fe (appearance)” value is on record as “Clear” and the “Solubility at −30° C., 5.0 wt % Fe (appearance)” value is given as “Clear”.

Take `CC(=O)CCC(C)=O` [Compound 15, Acetonyl acetone]: in series [1], the “Solubility at −30° C., 2.5 wt % Fe (appearance)” value is reported as “Powder” and the “Solubility at −30° C., 5.0 wt % Fe (appearance)” value is “Powder”.

As for “1,1-diferrocenyl cyclohexane [Compound 11]”, in series [3], the “Viscosity at −30° C. (mPas)” value was 4.8 mPas. In series [1] (toluene, −30° C.), the “Solubility of Fe as product” value is recorded as approximately 4.9 wt %. Moreover, in series [1] (setting [4]), the “Solubility at −30° C., 2.5 wt % Fe (appearance)” value is on record as “Clear” and the “Solubility at −30° C., 5.0 wt % Fe (appearance)” value is recorded as “Powder”.

For 1,1-diferrocenylpentane [Compound 7], the “Viscosity at −30° C. (mPas)” value in series [3] was found to be 5.4 mPas. Further, in series [1], the “Solubility at −30° C., 2.5 wt % Fe (appearance)” value was “Clear” and the “Solubility at −30° C., 5.0 wt % Fe (appearance)” value is “Clear”.

Take “1,1-diferrocenyl 2-ethylhexane [Compound 4]”: in series [1], the “Solubility at −30° C., 2.5 wt % Fe (appearance)” value is given as “Clear” and the “Solubility at −30° C., 5.0 wt % Fe (appearance)” value is given as “Clear”.

The record behind these values is patent US7452388B2, “Compositions comprising dimeric or oligomeric ferrocenes” (Innospec Limited, priority 2000, dated 2008).
